Data: PubChem BioAssay AID1033 (Sanford-Burnham Center for Chemical Genomics, 2008)
Active and inactive are the calls of the source. The rule behind the calls is not given here.

These compounds were tested against Chaperone protein DnaK (Escherichia coli (strain K12)) (UniProt P0A6Y8) (assay: E. coli DnaK SBD ligand binding – biophysical, NMR, chaperone (AID 1033)). Conditions: Purified DnaK SBD.
Sequence of Chaperone protein DnaK (Escherichia coli (strain K12)) (P0A6Y8 whole entry, looked up): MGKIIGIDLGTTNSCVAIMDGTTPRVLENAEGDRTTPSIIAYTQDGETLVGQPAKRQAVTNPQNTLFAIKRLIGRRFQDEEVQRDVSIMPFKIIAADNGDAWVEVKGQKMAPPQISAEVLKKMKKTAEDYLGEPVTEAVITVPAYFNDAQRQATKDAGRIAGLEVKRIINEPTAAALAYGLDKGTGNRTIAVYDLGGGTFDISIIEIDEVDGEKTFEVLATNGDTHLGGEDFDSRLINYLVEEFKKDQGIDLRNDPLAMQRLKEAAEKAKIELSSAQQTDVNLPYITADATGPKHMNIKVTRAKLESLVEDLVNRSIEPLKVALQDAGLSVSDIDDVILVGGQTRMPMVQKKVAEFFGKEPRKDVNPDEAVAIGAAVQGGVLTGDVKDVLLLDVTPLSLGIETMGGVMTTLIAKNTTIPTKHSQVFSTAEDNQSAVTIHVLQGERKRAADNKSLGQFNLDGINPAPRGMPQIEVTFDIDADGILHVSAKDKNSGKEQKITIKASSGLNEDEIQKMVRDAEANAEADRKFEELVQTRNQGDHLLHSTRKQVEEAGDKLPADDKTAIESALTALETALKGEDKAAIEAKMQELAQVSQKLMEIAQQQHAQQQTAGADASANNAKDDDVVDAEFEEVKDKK

Structure (SMILES)	Kd
Cn1nnc2cc(C(=O)NCc3ccco3)ccc21	> 4 mM (inactive)
Cc1cc(C)cc(OC(=O)N2CCOCC2)c1	> 4 mM (inactive)
CC(=O)OC1CCC23CC1(C)CCC2C(C)(C)CC3OC(C)=O (stereo not drawn)	> 4 mM (inactive)
O=C(O)c1cncc(-c2ccccc2)c1	> 4 mM (inactive)
Cc1nnc(SCC(=O)N2CCCCC2)s1	> 4 mM (inactive)
Cn1ncc(N2CCOCC2)c(Cl)c1=O	> 4 mM (inactive)
Cc1nnsc1-c1onc(C)c1C(=O)O	> 4 mM (inactive)
Cc1ccccc1NC(=S)NCCO	> 4 mM (inactive)
C=C[C@H]1CN2CC[C@H]1C[C@@H]2[C@@H](O)c1ccnc2ccc(OC)cc12	> 4 mM (inactive)
O=C1NC(=O)C(=Cc2ccccc2)C(=O)N1	> 4 mM (inactive)
C=CCNC(=O)c1nn2cccnc2c1Cl	> 4 mM (inactive)
CNC(C)[C@H](O)c1ccccc1 (stereo partly drawn)	> 4 mM (inactive)
CNc1nnc(CSc2nc(C)cc(C)n2)s1	> 4 mM (inactive)
O=C1CN(C(=O)c2ccccc2F)c2ccccc2N1	> 4 mM (inactive)
Cc1c(N=CN2CCOCC2)c(=O)n(C)c(=O)n1C	> 4 mM (inactive)
CN(c1ccc(C(=O)N2CCCCC2)cc1)S(C)(=O)=O	> 4 mM (inactive)
Cc1cc(NC(=O)NCCCSc2nncn2C)no1	> 4 mM (inactive)
CN1CCC(O)N1C(=O)c1ccccc1O (stereo not drawn)	> 4 mM (inactive)
COc1ccc2[nH]cc(CN(C)C)c2c1	> 4 mM (inactive)
Cc1csc(CCc2nc(C)cs2)n1	> 4 mM (inactive)
O=C1N=c2ccccc2=C1c1sc(=S)[nH]c1O	> 4 mM (inactive)
CC(=O)O[C@@H]1C=C[C@@]2(C)C(C[C@@H](OC(C)=O)[C@@]3(C)C4=CC(=O)O[C@@H](c5ccoc5)[C@]4(C)CCC23)C1(C)C (stereo partly drawn)	> 4 mM (inactive)
OCc1ccc2c(c1)CCO2	> 4 mM (inactive)
Cc1cc(C)nc(/N=C(/N)Nc2cccc(F)c2)n1	> 4 mM (inactive)

Structure (SMILES)	Kd
COc1c(O)cc2c(c1O)[C@H]1O[C@H](CO)[C@@H](O)[C@H](O)[C@@H]1OC2=O	> 4 mM (inactive)
CCOC(=O)c1c(C)nc2c(C#N)cnn2c1C	> 4 mM (inactive)
C[C@H]1[C@H](C)CC[C@]2(C(=O)O)CC[C@]3(C)C(=CCC4[C@@]5(C)C[C@@H](O)[C@H](O)[C@@](C)(CO)C5[C@H](O)C[C@]43C)[C@H]12 (stereo partly drawn)	> 4 mM (inactive)
COc1ccc(-c2cc(=O)c3ccccc3o2)cc1OC	> 4 mM (inactive)
CC(=O)Oc1ccc(-c2nc(-c3cccnc3)no2)cc1	> 4 mM (inactive)
CC(C)Nc1nc2n(c(=O)n1)CCN2C(C)C	> 4 mM (inactive)
O=C1CCCC(=O)N1c1ccc(O)cc1	> 4 mM (inactive)
CSc1nc(O)cc(=O)[nH]1	> 4 mM (inactive)
CCOC(=O)c1csc(C2COc3ccccc3O2)n1 (stereo not drawn)	> 4 mM (inactive)
O=c1oc2ccccc2cc1O	> 4 mM (inactive)
CC(=O)Nc1ccc(-c2cn3ccsc3n2)cc1	> 4 mM (inactive)
c1ccc(CCc2nc(-c3ccncc3)no2)cc1	> 4 mM (inactive)
CN(C)C(=O)CCNS(=O)(=O)c1ccccc1	> 4 mM (inactive)
Cn1cnc2c(Cl)ncnc21	> 4 mM (inactive)
O=C(O)C1=Cc2ccccc2OC1	> 4 mM (inactive)
O=C(O)c1ccc2occc2c1	> 4 mM (inactive)
O=C(O)c1ccccc1C(=O)Nc1ccccc1	> 4 mM (inactive)
CC(CC(=O)O)n1cccn1 (stereo not drawn)	> 4 mM (inactive)
Cc1cc(C(=O)NCc2cccs2)cs1	> 4 mM (inactive)
OCc1ccc(-n2cncn2)cc1	> 4 mM (inactive)
CC(C)CCCC(C)C1CCC2C3C[C@@H](O)[C@@]4(O)C[C@@H](O)CC[C@]4(C)C3CC[C@]12C (stereo partly drawn)	> 4 mM (inactive)
Cc1ccc(/C=N/n2c(C)nnc2C)cc1	> 4 mM (inactive)
O=[N+]([O-])c1ccc(/C=N/c2ncn[nH]2)cc1	> 4 mM (inactive)
O=C(c1ccccc1)N1CCOCC1	> 4 mM (inactive)

Structure (SMILES)	Kd
CC(C)(O)[C@@H]1Cc2cc3ccc(=O)oc3cc2O1	> 4 mM (inactive)
COc1ccc2c3c1O[C@H]1C[C@@H](O)C=C[C@@]31CCN(C)C2	> 4 mM (inactive)
O=C(O)C1COc2ccccc2C1 (stereo not drawn)	> 4 mM (inactive)
O=C(c1ccccc1)c1ccccc1C(=O)N1CCCC1	> 4 mM (inactive)
Cc1ccccc1-n1c(-c2ccncc2)n[nH]c1=S	> 4 mM (inactive)
CC(=O)c1c(O)n(C)c(=S)n(C)c1=O	> 4 mM (inactive)
O=C(O)c1csc(-c2cccs2)n1	> 4 mM (inactive)
Cc1cc(C(=O)Nc2cccnc2)no1	> 4 mM (inactive)
Cn1cnc2c1c(=O)[nH]c(=O)n2C	> 4 mM (inactive)
CCOC(=O)Cn1cnc2c1c(=O)[nH]c(=O)n2C	> 4 mM (inactive)
CN(C)C1CCS(=O)(=O)C1 (stereo not drawn)	> 4 mM (inactive)
CCN1C(=O)c2c(C)nc3ccccc3c2C1=O	> 4 mM (inactive)
COc1ccc2c(c1)OC1(O)COc3cc(OC)c(OC)cc3C1=C2 (stereo not drawn)	> 4 mM (inactive)
Cc1ncoc1C(=O)Nc1ncc([N+](=O)[O-])s1	> 4 mM (inactive)
COc1ccc2c(c1)OCC(Cc1ccc(OC)c(O)c1)C2=O (stereo not drawn)	> 4 mM (inactive)
OCCNc1nc2ccc(Cl)cc2[nH]1	> 4 mM (inactive)
O=C(c1cc2ccccc2o1)c1nc2c(n1O)CCCCC2	> 4 mM (inactive)
CNCc1ccccc1	> 4 mM (inactive)
S=C(NCc1ccco1)NN1CCOCC1	> 4 mM (inactive)
COc1ccc2c(c1OC)C(=O)O[C@@H]2[C@@H]1c2cc3c(cc2CCN1C)OCO3	> 4 mM (inactive)
CC1(C)N=C2C(=N)C=CC=C2N1O	> 4 mM (inactive)
Cc1nn2c(nc1=O)SCC2(O)c1ccccc1 (stereo not drawn)	> 4 mM (inactive)
COC1=C(OC)C(=O)C(C/C=C(\C)CC/C=C(\C)CC/C=C(\C)CC/C=C(/C)CC/C=C(\C)CC/C=C(\C)CC/C=C(\C)CC/C=C(\C)CC/C=C(\C)CCC=C(C)C)=C(C)C1=O	> 4 mM (inactive)
O=c1ccc2c([nH]1)CCCC2	> 4 mM (inactive)

Structure (SMILES)	Kd
CC(C)(C(N)=O)/[N+]([O-])=C\c1ccccc1	> 4 mM (inactive)
COC(=O)CSc1ncnc2c(C)csc12	> 4 mM (inactive)
COC(=O)c1ccc(N2CCOCC2)nc1	> 4 mM (inactive)
Cc1nnc(SCc2ccc(F)cc2)s1	> 4 mM (inactive)
CC(C)NC(=O)c1cc(=O)n(C)c(=O)n1C	> 4 mM (inactive)
O=C(Nc1ccccc1)N1CCOCC1	> 4 mM (inactive)
Cn1c(=O)[nH]c2nc[nH]c2c1=O	> 4 mM (inactive)
Cc1n[nH]c(=O)c2ncn(C)c12	> 4 mM (inactive)
CC(C)CCCC(C)[C@H]1CCC2C3CC=C4CC(=O)CC[C@]4(C)C3CC[C@@]21C (stereo partly drawn)	> 4 mM (inactive)
C[C@@H]1CC[C@@]2(NC1)O[C@H]1C[C@H]3C4CC=C5C[C@@H](O)CC[C@]5(C)C4CC[C@]3(C)C1[C@@H]2C (stereo partly drawn)	> 4 mM (inactive)
Cc1nn(-c2ccccc2)c(Cl)c1C(N)=O	> 4 mM (inactive)
O=C(O)c1ccc2c(c1)OCO2	> 4 mM (inactive)
CCOC(=O)c1cnc2n(c1=O)CCS2	> 4 mM (inactive)
COc1nc(C)ccc1-c1noc(-c2ccncc2)n1	> 4 mM (inactive)
NC(=O)c1ccccc1N=Cc1ccco1	> 4 mM (inactive)
Cc1nn(C)c2sc(CO)cc12	> 4 mM (inactive)
Cc1nnc(Nc2cccnc2)[nH]c1=O	> 4 mM (inactive)
Cc1cc(NC(=O)CSc2ccnc(=O)[nH]2)no1	> 4 mM (inactive)
Cc1cccc(CO)n1	> 4 mM (inactive)
O=C(O)c1cc(=O)c2cccc(O)c2[nH]1	> 4 mM (inactive)
CN1CCN(C(=O)Nc2cccc3ccccc23)CC1	> 4 mM (inactive)
OCCN1CCN(C(=S)c2ccc(Cl)cc2)CC1	> 4 mM (inactive)
CC(NC(=O)c1cccnc1)c1ccc2c(c1)OCO2 (stereo not drawn)	> 4 mM (inactive)
Cn1cnc2cc(NC(=O)c3ccco3)ccc21	> 4 mM (inactive)

Structure (SMILES)	Kd
CC(=O)c1cc(-c2nc3ccccc3n2C)n(C)c1	> 4 mM (inactive)
CC1(C)C(=O)CC[C@@]2(C)C1C[C@@H](O)[C@@]1(C)C3=CC(=O)O[C@@H](c4ccoc4)[C@]3(C)CCC21 (stereo partly drawn)	> 4 mM (inactive)
O=C(O)c1cccc2c1OCCO2	> 4 mM (inactive)
Oc1ccc(-n2cncn2)cc1	> 4 mM (inactive)
CC(C)[C@@H]1CC[C@@H](C)C[C@H]1OC(=O)c1ccccc1	> 4 mM (inactive)
Cc1oc(-c2ccccc2)cc1C(=O)O	> 4 mM (inactive)
Cc1cc(C(=O)N2CCN(c3ccccn3)CC2)c(C)o1	> 4 mM (inactive)
Nc1c(N2CCCC2)cnn(-c2ccccc2)c1=O	> 4 mM (inactive)
CCCc1cc(=O)[nH]c2nnc(SCC(C)=O)n12	> 4 mM (inactive)
Cc1cc2nc3c(=O)[nH]c(=O)nc-3n(CC(O)C(O)C(O)CO)c2cc1C (stereo not drawn)	> 4 mM (inactive)
CC(C)NC(=O)c1cc(-n2cnnc2)ccc1Cl	> 4 mM (inactive)
CC12CN3CC(C)(CN(C1)C3c1cccs1)C2O (stereo not drawn)	> 4 mM (inactive)
CN(C(=O)NC1CCS(=O)(=O)C1)C1CCCCC1 (stereo not drawn)	> 4 mM (inactive)
CC1=C(C(N)=O)C(c2ccco2)C(C(N)=O)=C(C)N1	> 4 mM (inactive)
COc1cc2c(cc1O)[C@@H](Cc1ccc(O)cc1)[N+](C)(C)CC2	> 4 mM (inactive)
OCC1CCCC1O (stereo not drawn)	> 4 mM (inactive)
Cc1cc(C)c(C(N)=O)c(=S)[nH]1	> 4 mM (inactive)
O=c1[nH]c(O)c(C=NC2CC2)c(=O)[nH]1	> 4 mM (inactive)
NC(=O)c1cc(N)cc(C(N)=O)c1	> 4 mM (inactive)
O=S(=O)(c1cccc2cccnc12)N1CCOCC1	> 4 mM (inactive)
CNC(=O)COc1cccc2c1CCNC2=O	> 4 mM (inactive)
Cc1n[nH]c(=S)[nH]c1=O	> 4 mM (inactive)
